{"source": "patent US4727090A", "about": "“Process for preparing and therapeutical applications of the 2,4,6-triiodophenol” (Bislak, S.A., priority 1983, dated 1988)", "key": {"[1]": {"test_system": "granuloma formed around cotton implant", "experiment": "Cotton implant granuloma test", "assay_type": "in vivo, rats", "conditions": "72 hours", "description": "(B) To a group of 10 rats of about 200-225 g is implanted at the dorsal zone, subcutaneously, balled cotton (about 9 mg) impregnated and afterwards dried with a solution of medicamentous substance and which amount is known.\nWe use as reference Dexamethasone and controls without medicament.\nAfter 72 hours, once the animal is sacrificed, the granuloma formed around the implant is extracted and weighed, after drying at 100° C.\nThe antiinflammatory reduces the weight of the granuloma."}, "[2]": {"test_system": "acetic acid induced pullings", "experiment": "Writhing syndrome test (acetic acid)", "assay_type": "in vivo, mice", "conditions": "500 mg/kg oral; for inhibition at 500 mg/kg: Mus musculus, po, read-out: % INHIB. (pullings)", "description": "Irritant substance: acetic acid at 0.5% injected via intraperitoneal.\nFoundation of the method consists in provoking a dolorous syndrome by pulling and torsion of the stomach and the hind legs of the animals.\nThese pullings or stretchings are calculated during a certain time, using it as the measure of the provoked ache.\nMice of about 22 g by weight were used, animals were left under abstinence during 24 hours before carrying out the test.\nMice were previously selected as to each individual response to the dolorous stimulus provoked by an intraperitoneal injection of 0.2 ml of an acetic acid aqueous solution at the 0.5%. Valid animals for realizing the test are those which respond within a margin of 15-35 pullings in about 5 to 15 minutes after the injection. The remaining animals are not useful.\nMedication is realized via oral with the help of an esophageal cannula.\nWhite lot: Administration of 0.1 ml of CMC 1% for each 10 g of corporal weight.\n2,4,6-triiodophenol lot: Administration of 10 mg/kg of the product, suspended in CMC of 1%.\nAspirin-Lysin lot (Solusprin): Administration of 500 mg/kg aspirin, dissolved at 1%.\nAfter medication, one has to wait 20 minutes for injecting 0.2 ml acetic acid of 0.5% via intraperitoneal, calculating the number of pullings during 5 minutes. […]\nThe test was carried out in 9 mice in each lot."}, "Carrageenin leg oedema [3]": {"test_system": "Carrageenin leg oedema", "experiment": "Carrageenin leg oedema test", "assay_type": "in vivo, white rats", "conditions": "Rattus norvegicus; 10 mg/kg oral, 4 hours", "description": "(A) The antiinflammatory action is shown in white rats, of a weight of about 200-225 g, having provoked in these animals the leg oedema by means of an injection in the sole of the foot of 0.1 ml of a 1% Carrageenin solution.\nOne control group of ten animals, another the same medicated with indomethacin via oral at 30 mg/kg, in suspension in a carboxymethylcellulose solution, another group of ten rats, medicated with triiodophenol in oral solution at 5 mg/kg, another group medicated with triioodophenol at 1 mg/kg, injected via intramuscular and another group medicated with triiodophenol at 0.5 mg/kg via intramuscular. All medications are administered simultaneously to the formation of Edema.\nThe volume of the same is measured at 0 hours, 3 hours, 4 hours, 5 hours and 6 hours with a mercury Plestimograph."}, "Carrageenin leg oedema [4]": {"test_system": "Carrageenin leg oedema", "experiment": "Carrageenin leg oedema test", "assay_type": "in vivo, white rats", "conditions": "Rattus norvegicus, 10 mg/kg oral"}, "[5]": {"test_system": "sensation of pain on hot plate", "experiment": "Hot plate test at 56° C", "assay_type": "in vivo, mice", "conditions": "500 mg/kg injection", "description": "(A) To control analgesic activity we use mice of about 25 g by weight, in groups of ten mice, subjected to the test of the hot plate at 56° C.\nAnimals receive a medicamentous injection of 0.1 ml of solubilized aspirin with sodium bicarbonate, or of solubilized triiodophenol at pH 9'5.\nControls receive physiologic serum.\nThe time in which the animals indicate sensation of pain is measured with a chronometer.\nIn the hereunder table the results testing animals, 15 min. and 30 min. after the medication. Average values are taken of each group."}}, "note": "Read-outs that look alike come from different tables or passages of the source.", "data": [{"smiles": "C[C@@H]1C[C@H]2[C@@H]3CCC4=CC(=O)C=C[C@]4(C)[C@@]3(F)[C@@H](O)C[C@]2(C)[C@@]1(O)C(=O)CO", "note": "[Dexamethansone, reference compound]", "values": [{"measurement": "% Reduction of the granuloma (Average)", "setting": "[1]; 10 micrograms per implant", "result": 16, "unit": "%"}, {"measurement": "% Reduction of the granuloma (Average)", "setting": "[1]; 20 micrograms per implant", "result": 28, "unit": "%"}, {"measurement": "% Reduction of the granuloma (Average)", "setting": "[1]; 40 micrograms per implant", "result": 30, "unit": "%"}]}, {"smiles": "CC(=O)Oc1ccccc1C(=O)O", "note": "[ASPIRIN, reference compound]", "values": [{"measurement": "Total No. pullings", "setting": "[2]; 20'", "result": 12}, {"measurement": "Total No. pullings", "setting": "[2]; 30'", "result": 6}, {"measurement": "Total No. pullings", "setting": "[2]; 100'", "result": 6}, {"measurement": "inhibition at 500 mg/kg", "setting": "[2]; 20'", "result": 90, "unit": "%"}, {"measurement": "inhibition at 500 mg/kg", "setting": "[2]; 30'", "result": 89.2, "unit": "%"}]}, {"smiles": "COc1ccc2c(c1)c(CC(=O)O)c(C)n2C(=O)c1ccc(Cl)cc1", "note": "[Indomethacin]", "values": [{"measurement": "inhibition at 10 mg/kg", "setting": "Carrageenin leg oedema [3]", "result": 63, "unit": "%"}, {"measurement": "inhibition at 10 mg/kg", "setting": "Carrageenin leg oedema [4]; 3 hours", "result": 59, "unit": "%"}, {"measurement": "inhibition at 10 mg/kg", "setting": "Carrageenin leg oedema [4]; 5 hours", "result": 69, "unit": "%"}, {"measurement": "inhibition at 10 mg/kg", "setting": "Carrageenin leg oedema [4]; 6 hours", "result": 73, "unit": "%"}]}, {"smiles": "CC(=O)Oc1ccccc1C(=O)O", "note": "[Acetyl salicylic acid, reference compound]", "values": [{"measurement": "Time to sensation of pain", "setting": "[5]; 15 minutes", "result": "4,3 sec."}, {"measurement": "Time to sensation of pain", "setting": "[5]; 30 minutes", "result": "6,8 sec."}]}]}
